Legend:
[1] = test system: MX-1 or MAXF401 human breast cancer xenografts; test: Tumor volume growth in mice bearing human breast cancer xenografts; drug effect DE(t) and time point of maximum impact (TPMI) from Gompertzian/polynomial fits; type: in vivo; settings: for maximum drug effect, DE(TPMI): dimensionless; for elapsed time to zero crossing of derivative DE'(t) (TPMI) / elapsed time after start of treatment to relative maximum in DE(t) (TPMI): pooled data, 14 days on/7 off; for elapsed time after start of treatment to relative maximum in DE(t) (TPMI): first cycle
Text: The untreated series of measurements reveal the progression of the disease without treatment, and therefore it is not obtained from a patient to be treated using the method. Typically the untreated series of measurements describes the progression of the disease in one or more historical cases, or test subjects, or both. For example, the untreated series of measurements describes the progression of tumor volume with time in breast cancer victims who are not treated for some number of weeks. In the illustrated embodiment, described further in later sections, the untreated series of measurements describe tumor volume in mice bearing MX-1 or MAXF401 human breast cancer xenografts approximately every two days for about seven weeks (50 days). FIG. 2A is a graph 210 that illustrates, as solid-filled circles 216, pooled measurements of tumor volume growth for untreated breast cancer in xenograft models (MX-1). Untreated tumor growth is sometimes called “naïve growth.” The horizontal axis 212 indicates the passage of time in days since an initial time. The vertical axis 214 indicates the tumor volume in cubic millimeters (mm^3). The solid trace 218 represents a model fit to the data as described in more detail below.
In the illustrated embodiment, described further in later sections, two treated series of measurements describe tumor volume in mice bearing MX-1 or MAXF401 human breast cancer xenografts approximately every two days for about seven weeks (50 days) during treatment. The treatment involves administering the drug XELODA according to the standard protocol: a 14-day duration of administering the drug at a particular dose, followed by a 7 day hiatus in administering the drug. One treatment uses a lower dose of 1.5 millimoles (mmol) per kilogram (kg) of victim weight per day (mmol/kg/day). A second treatment uses a higher dose of 2.25 mmol/kg/day. Each of the two treated series describes the progression of tumor volume with time in the treated victim of the disease, and includes an initial measurement of tumor volume at or near when the treatment was started, for example just before the first injection of the drug. The initial measurement is used in a later step to relate a treated series to the untreated series, which typically occur in different subjects.
In step 130, a temporal series of effectiveness values is determined. Any method may be used to determine an effectiveness value. In the illustrated embodiment, each effectiveness value indicates the ratio between the rate of change of the physical property for the treated disease and the rate of change for the untreated disease at a corresponding time. For purposes of illustration, it is assumed that the temporal progression of the physical property for the untreated disease is represented by the function Pu(t) and that its rate of change is given by its first time derivative Pu′(t). Similarly, it is assumed that the temporal progression of the physical property for the treated disease is represented by the function Pt(t) and that its rate of change is given by its first time derivative Pt′(t). It is further assumed that the temporal progression of the ratio is represented by the function R(t) and is given by Equation 1 R(t)=Pt′(t)/Pu′(t) (1). In other embodiments, a different definition of ratio is used. For example, in some embodiments the ratio given by the reciprocal of R(t) is used. In the illustrated embodiments, R is the ratio of two physical properties with the same units and is therefore dimensionless.
An effectiveness parameter is often defined that indicates the ratio R(t) but offers a more useful description of the effect of a treatment than the ratio itself. […]

[2] = test system: MX-1 or MAXF401 human breast cancer xenografts; settings: 6 weeks, CDS (days on/off) 14/7, 5/2, 2/5, 7/7, 4 dose levels plus control; Yanagisawa, Proc. AACR 2004; cited from earlier work

CCCCCOC(=O)Nc1nc(=O)n([C@@H]2O[C@H](C)[C@@H](O)[C@H]2O)cc1F [capecitabine]
maximum drug effect, DE(TPMI) ([1]; 7-day duration/7-day hiatus, high dose 2.5 mmol/kg/day): about 0.8 | maximal DE, 7 on/7 off CDS compared with 14 on/7 off CDS ([1]; follow-up experiment, higher daily dose with 7 on/7 off): increased maximal DE | elapsed time to zero crossing of derivative DE'(t) (TPMI) ([1]; higher dose 2.25 mmol/kg/day): 8.3 days | elapsed time after start of treatment to relative maximum in DE(t) (TPMI) ([1]; higher dose 2.25 mmol/kg/day): 8 days | elapsed time to zero crossing of derivative DE'(t) (TPMI) ([1]; lower dose 1.5 mmol/kg/day): 10.1 days | elapsed time after start of treatment to relative maximum in DE(t) (TPMI) ([1]; lower dose 1.5 mmol/kg/day): 10 days | time point of maximum impact (TPMI), averaged, days into therapy ([1]; pooled mice, dose levels analyzed (1.5 and 2.25 mmol/kg/day), 14/7 CDS): 8.3 to 10.1 days | maximum drug effect, DE(TPMI) ([1]; standard protocol, 14-day duration/7-day hiatus): about 0.65 | effectiveness of CDS regimens [2]: all were effective at an appropriate dose
